How the values were obtained:
Assay in all cases: relative viability (nuclei count vs DMSO), 5 days (fraction); higher = more cells survive
[1] = test system: ABC-1
In short: (§1)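 One day after seeding in 1536-well plates, lung cancer cell lines were dosed by pin tool. Dosing was either single-drug or a fixed anchor-drug dose plus five library-drug doses (not always all listed) in √10 steps. After 5 days, nuclei were stained in one fix-and-stain step and counted on 4× images, and relative viability is the nuclei count of treated wells over that of vehicle wells, given as the median of duplicate plates.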

[2] = test system: ChaGo-K-1
In short: as §1

[3] = test system: HCC-78
In short: as §1

[4] = test system: HOP-62
In short: as §1

[5] = test system: LCLC-97TM1
In short: as §1

[6] = test system: LOU-NH91
In short: as §1

[7] = test system: NCI-H1355
In short: as §1

[8] = test system: NCI-H1437
In short: as §1

[9] = test system: NCI-H1755
In short: as §1

[10] = test system: NCI-H1792
In short: as §1

[11] = test system: NCI-H2009
In short: as §1

[12] = test system: NCI-H2023
In short: as §1

## O=c1[nH]c2ccccc2n1C1CCN(CCCC(c2ccc(F)cc2)c2ccc(F)cc2)CC1 [Pimozide] + CC(=O)c1c(C)c2cnc(Nc3ccc(N4CCNCC4)cn3)nc2n(C2CCCC2)c1=O [Palbociclib] (partner 0.5 µM)
[1]; first compound 0.08 µM
  relative viability: 0.527
[1]; first compound 0.253 µM
  relative viability: 0.565
[1]; first compound 0.8 µM
  relative viability: 0.874
[1]; first compound 2.53 µM
  relative viability: 0.614
[1]; first compound 8 µM
  relative viability: 0.462
[2]; first compound 0.08 µM
  relative viability: 0.918
[2]; first compound 0.253 µM
  relative viability: 0.955
[2]; first compound 0.8 µM
  relative viability: 0.9
[2]; first compound 2.53 µM
  relative viability: 0.903
[2]; first compound 8 µM
  relative viability: 0.9
[3]; first compound 0.08 µM
  relative viability: 0.514
[3]; first compound 0.8 µM
  relative viability: 0.431
[3]; first compound 2.53 µM
  relative viability: 0.421
[3]; first compound 8 µM
  relative viability: 0.524
[4]; first compound 0.08 µM
  relative viability: 0.412
[4]; first compound 0.253 µM
  relative viability: 0.391
[4]; first compound 2.53 µM
  relative viability: 0.361
[4]; first compound 8 µM
  relative viability: 0.442
[5]; first compound 0.08 µM
  relative viability: 0.203
[5]; first compound 0.253 µM
  relative viability: 0.237
[5]; first compound 0.8 µM
  relative viability: 0.203
[5]; first compound 2.53 µM
  relative viability: 0.167
[5]; first compound 8 µM
  relative viability: 0.251
[6]; first compound 0.08 µM
  relative viability: 0.525
[6]; first compound 0.253 µM
  relative viability: 0.404
[6]; first compound 0.8 µM
  relative viability: 0.443
[6]; first compound 2.53 µM
  relative viability: 0.558
[6]; first compound 8 µM
  relative viability: 0.539
[7]; first compound 0.08 µM
  relative viability: 0.338
[7]; first compound 0.253 µM
  relative viability: 0.387
[7]; first compound 0.8 µM
  relative viability: 0.329
[7]; first compound 2.53 µM
  relative viability: 0.388
[7]; first compound 8 µM
  relative viability: 0.407
[8]; first compound 0.08 µM
  relative viability: 0.338
[8]; first compound 0.253 µM
  relative viability: 0.328
[8]; first compound 0.8 µM
  relative viability: 0.25
[8]; first compound 2.53 µM
  relative viability: 0.256
[8]; first compound 8 µM
  relative viability: 0.265
[9]; first compound 0.08 µM
  relative viability: 0.448
[9]; first compound 0.253 µM
  relative viability: 0.337
[9]; first compound 0.8 µM
  relative viability: 0.447
[9]; first compound 2.53 µM
  relative viability: 0.416
[9]; first compound 8 µM
  relative viability: 0.46
[10]; first compound 0.08 µM
  relative viability: 0.665
[10]; first compound 0.253 µM
  relative viability: 0.635
[10]; first compound 0.8 µM
  relative viability: 0.625
[10]; first compound 2.53 µM
  relative viability: 0.589
[10]; first compound 8 µM
  relative viability: 0.52
[11]; first compound 0.08 µM
  relative viability: 0.202
[11]; first compound 0.253 µM
  relative viability: 0.307
[11]; first compound 0.8 µM
  relative viability: 0.178
[11]; first compound 2.53 µM
  relative viability: 0.226
[11]; first compound 8 µM
  relative viability: 0.188
[12]; first compound 0.08 µM
  relative viability: 0.337
[12]; first compound 0.253 µM
  relative viability: 0.39
[12]; first compound 0.8 µM
  relative viability: 0.341

Source: the supplement of paper PMC10307832
